Experimental findings from BindingDB's records for patent US20250163061 (Bala Therapeutics, 2025) are described below.

pEC50: −log10 of the molar value.

For the assay, the target named is T1, Menin (Homo sapiens, UniProt O00255).
T1 sequence (O00255 whole entry): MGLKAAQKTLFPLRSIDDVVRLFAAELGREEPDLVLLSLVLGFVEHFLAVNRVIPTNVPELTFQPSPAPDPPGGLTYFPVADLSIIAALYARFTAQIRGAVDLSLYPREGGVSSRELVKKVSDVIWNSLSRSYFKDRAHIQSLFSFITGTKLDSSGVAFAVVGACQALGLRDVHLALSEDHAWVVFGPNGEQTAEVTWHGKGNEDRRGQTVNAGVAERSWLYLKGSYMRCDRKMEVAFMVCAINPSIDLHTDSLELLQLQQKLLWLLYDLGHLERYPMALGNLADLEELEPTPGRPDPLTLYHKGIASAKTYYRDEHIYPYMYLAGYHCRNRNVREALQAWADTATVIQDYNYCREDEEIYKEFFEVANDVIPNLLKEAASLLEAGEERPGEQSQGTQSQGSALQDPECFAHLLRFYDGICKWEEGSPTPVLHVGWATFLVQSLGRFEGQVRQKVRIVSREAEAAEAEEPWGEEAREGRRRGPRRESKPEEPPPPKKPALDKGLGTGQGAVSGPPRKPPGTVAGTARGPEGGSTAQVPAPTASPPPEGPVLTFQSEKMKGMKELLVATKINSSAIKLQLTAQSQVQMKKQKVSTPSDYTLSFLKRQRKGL
The experiment in a line: Primary Assay Used to Determine Potency of MEN1 Activity Inhibition. On the procedure:
Compound activity was determined using recombinant MEN1 protein (Creativebiomart, Cat #MEN1-35H) and a custom fluorescein-labeled MLL4-43 peptide (Eton Bioscience Inc.). Interaction between MEN1 and MLL4-43 in the presence of compounds was determined by fluorescence polarization assay using a Microplate Reader ClarioStar Plus. The reaction was carried out in assay buffer (50 mM TRIS-HCl pH 7.4-7.6, 50 mM NaCl, 1 mM DTT, 0.1 mg/ml BSA). The compounds were dispensed on a 384 well Diamond Well Plate (Axigen, Cat #P-384-120SQ-C-S) using the Biomek FX liquid handling system at 100× solutions of compounds in DMSO. 2×MEN1 mix (final concentration of MEN1 10 nM) was prepared in Assay buffer and 10 μl of mixture per well was added into 384 w white Reaction plate with NBS (Corning, Cat #4513). 10 μl of Assay buffer w/o MEN1 was used for negative control. Plates were centrifuged for 1 min at 100 g. Next step the Compounds were added to Reaction plate using Biomek station via following steps: 3 μl of 100× compounds (in DMSO) were mixed thoroughly with 27 μl Assay Buffer, then 2 μl of this mixture was added to Reaction plate with 10 μl of MEN1 mix. Plates were centrifuged for 1 min at 100 g and incubated for 20 min at room temperature. Next 8 μL of MLL4-43 peptide per well was added to final concentration of MLL 0.5 nM. Plates were incubated for 1 hour at room temperature. Then fluorescence polarization was measured using Microplate Reader.
On to `C=CC(=O)N1CCN(CCCn2c(C#N)cc3c(C)c(CN4CCC5(CC4)CN(c4ncnc6ccc(CC(F)(F)F)cc46)C5)ccc32)CC1` [US20250163061, Compound 66], for which the pEC50 (as a rule, the negative decadic logarithm of the EC50, by convention in mol/L) was over 7.12. The result for `Cc1c(CN2CCC3(CC2)CN(c2ncnc4ccc(CC(F)(F)F)nc24)C3)ccc2c1cc(C#N)n2CC(C)N1CCN(S(C)(=O)=O)CC1` (configuration not stated) [US20250163061, Compound 67] reads over 7.12.

In turn, `Cc1c(CN2CCC3(CC2)CN(c2ncnc4ccc(CC(F)(F)F)cc24)C3)ccc2[nH]c(C#N)cc12` [US20250163061, Compound 68] showed a negative-log EC50 (pEC50) of over 7.12. The result for `Cc1c(CN2CCC3(CC2)CN(c2ncnc4ccc(CC(F)(F)F)cc24)C3)ccc2c1cc(C#N)n2CC(C)N1CCN(S(C)(=O)=O)CC1` (configuration not stated) [US20250163061, Compound 71] reads over 7.12. The result for `Cc1c(CN2CCC3(CC2)CN(c2ncnc4ccc(CC(F)(F)F)cc24)C3)ccc2c1cc(C#N)n2CC1CCC(=O)NC1` (configuration not stated) [US20250163061, Compound 72] reads over 7.12. The result for `CCCCS(=O)(=O)N1CCCN(C(C)Cn2c(C#N)cc3c(C)c(CN4CCC5(CC4)CN(c4ncnc6ccc(CC(F)(F)F)cc46)C5)ccc32)CC1` (configuration not stated) [US20250163061, Compound 73] reads over 7.12; that for `Cc1c(CN2CCC3(CC2)CN(c2ncnc4ccc(C(F)(F)C(F)(F)F)cc24)C3)ccc2c1cc(C#N)n2C[C@H](C)N1CCN(S(C)(=O)=O)CC1` [US20250163061, Compound 75], over 7.12; that for `CC(Cn1c(C#N)cc2c(F)c(CN3CCC4(CC3)CN(c3ncnc5ccc(CC(F)(F)F)cc35)C4)ccc21)N1CCN(S(C)(=O)=O)CC1` (configuration not stated) [US20250163061, Compound 78], 6.30 to 7.12.

With `Cc1c(CN2CCC3(CC2)CN(c2nncc4ccc(CC(F)(F)F)cc24)C3)ccc2c1cc(C#N)n2CC(C)N1CCN(S(C)(=O)=O)CC1` (configuration not stated) [US20250163061, Compound 79], the pEC50 was under 5.30. Under `Cc1cc(CN2CCC3(CC2)CN(c2ncnc4ccc(CC(F)(F)F)cc24)C3)cc2c1cc(C#N)n2CC(C)N1CCN(S(C)(=O)=O)CC1` (configuration not stated) [US20250163061, Compound 83] stands under 5.30; under `C=CC(=O)N1CCN(CCn2c(C#N)cc3cc(CN4CCC5(CC4)CN(c4ncnc6ccc(CC(F)(F)F)cc46)C5)ccc32)CC1` [US20250163061, Compound 86], 6.30 to 7.12; under `Cc1c(CN2CCC3(CC2)CN(c2ncnc4ccc(CC(F)(F)F)cc24)C3)ccc2c1cc(C#N)n2CC1CNC(=O)CCO1` (configuration not stated) [US20250163061, Compound 87], over 7.12.

Consider `Cc1c(CN2CCC3(CC2)CN(c2ncnc4ncc(CC(F)(F)F)cc24)C3)ccc2c1cc(C#N)n2CC(C)N1CCN(S(C)(=O)=O)CC1` (configuration not stated) [US20250163061, Compound 89], for which the pEC50 was over 7.12.

The compound `CS(=O)(=O)N1CCN(CCn2c(C#N)cc3cc(CN4CCC5(CC4)CN(c4ncnc6ccc(CC(F)(F)F)cc46)C5)ccc32)CC1` [US20250163061, Compound 91] showed a pEC50 of over 7.12.

Turning to `Cc1c(CN2CCC3(CC2)CN(c2ncnc4ccc(CC(F)(F)F)cc24)C3)ccc2c1cc(C#N)n2CC(C)N1CCNC(=O)C1` (configuration not stated) [US20250163061, Compound 93], the negative-log EC50 (pEC50) was over 7.12. Under `Cc1c(CN2CCC3(CC2)CN(c2ncnc4ccc(CC(F)(F)F)cc24)C3)ccc2c1cc(C#N)n2CC12CC(NC=O)(C1)C2` [US20250163061, Compound 95] stands over 7.12; under `Cc1c(CN2CCC3(CC2)CN(c2ncnc4ccc(CC(F)(F)F)cc24)C3)ccc2c1cc(C#N)n2CCN1CCOCC1` [US20250163061, Compound 97], over 7.12; under `CN(C)C/C=C/C(=O)N1CCN(CCn2c(C#N)cc3cc(CN4CCC5(CC4)CN(c4ncnc6ccc(CC(F)(F)F)cc46)C5)ccc32)CC1` [US20250163061, Compound 99], over 7.12. For `Cc1c(CN2CCC3(CC2)CN(c2ncnc4ccc(CC(F)(F)F)cc24)C3)ccc2c1cc(C#N)n2C[C@H]1CNC(=O)CO1` [US20250163061, Compound 101], the pEC50 is over 7.12. With `Cc1c(CN2CCC3(CC2)CN(c2ncnc4ccc(CC(F)(F)F)cc24)C3)ccc2c1cc(C#N)n2C[C@@H]1CNC(=O)CO1` [US20250163061, Compound 102], the pEC50 is over 7.12. On to `CCN1CC(Cn2c(C#N)cc3c(C)c(CN4CCC5(CC4)CN(c4ncnc6ccc(CC(F)(F)F)cc46)C5)ccc32)OCC1=O` (configuration not stated) [US20250163061, Compound 104], for which the pEC50 is over 7.12. Under `Cc1c(CN2CCC3(CC2)CN(c2nc(=O)[nH]c4ccc(CC(F)(F)F)cc24)C3)ccc2c1cc(C#N)n2C[C@@H]1CNC(=O)CO1` [US20250163061, Compound 105] stands 6.00 to 6.30.
